From ChEMBL document CHEMBL1201862, “PubChem BioAssay data set” (2004) come the findings set out here.

Calls of active or inactive are those of the source.

Assay [1] addresses Tyrosine-protein kinase Lck (Homo sapiens, UniProt P06239). Format: functional.
The target in assay [2] is ALK tyrosine kinase receptor (Homo sapiens, UniProt Q9UM73). Format: functional.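 Note: ALK tested as one member of a kinase panel screen.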
Assay [3] deals with Fibroblast growth factor receptor 1 (Homo sapiens, UniProt P11362). Format: functional.
In assay [4] the target is Mitogen-activated protein kinase kinase kinase kinase 4 (Homo sapiens, UniProt O95819). The class given is functional.
Assay [5] deals with Death-associated protein kinase 3 (Homo sapiens, UniProt O43293). Format: functional.
The target in assay [6] is Casein kinase I isoform alpha (Homo sapiens, UniProt P48729). Format: functional.
For assay [7], the target named is Calcium/calmodulin-dependent protein kinase type II subunit alpha (Homo sapiens, UniProt Q9UQM7). Nature of the assay: Navigating the Kinome. Panel member name: CAMK2A. Format: functional.
For assay [8], the target named is Serine/threonine-protein kinase pim-1 (Homo sapiens, UniProt P11309). The class given is functional.
For assay [9], the target named is Tyrosine-protein kinase JAK3 (Homo sapiens, UniProt P52333). The class given is functional.
Assay [10] deals with Serine/threonine-protein kinase N2 (Homo sapiens, UniProt Q16513). Format: functional.
The target in assay [11] is Serine/threonine-protein kinase PAK 4 (Homo sapiens, UniProt O96013). Format: functional.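 Note: value obtained within a kinome profiling panel in which PAK4 was one of the panel members.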
Assay [12] has as its target Focal adhesion kinase 1 (Homo sapiens, UniProt Q05397). The class given is functional.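 Note: measured as one member of a kinome panel.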
The target in assay [13] is Serine/threonine-protein kinase D3 (Homo sapiens, UniProt O94806). The class given is functional.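 Note: determined within a kinase panel screen, with PRKCN as the panel member.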
Assay [14] concerns the target Tyrosine-protein kinase Fyn (Homo sapiens, UniProt P06241). Format: functional.
Assay [15] has as its target Mitogen-activated protein kinase 8 (Homo sapiens, UniProt P45983). Format: functional.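 Note: value comes from one member of a kinome-wide kinase profiling panel.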
In assay [16] the target is Tyrosine-protein kinase BTK (Homo sapiens, UniProt Q06187). Format: functional.
Assay [17] deals with Tyrosine-protein kinase ABL1 (Homo sapiens, UniProt P00519). Format: functional.
Assay [18] concerns the target G protein-coupled receptor kinase 5 (Homo sapiens, UniProt P34947). Nature of the assay: Navigating the Kinome. Panel member name: GPRK5. Format: functional.
In assay [19] the target is Serine/threonine-protein kinase TAO1 (Homo sapiens, UniProt Q7L7X3). The class given is functional.
For assay [20], the target named is Cyclin-dependent kinase 8 (Homo sapiens, UniProt P49336). Nature of the assay: Navigating the Kinome. Panel member name: CDK8. The class given is functional.
Assay [21] deals with Activin receptor type-1 (Homo sapiens, UniProt Q04771). Nature of the assay: Navigating the Kinome. Panel member name: ACVR1. Format: functional.
The target in assay [22] is Glycogen synthase kinase-3 alpha (Homo sapiens, UniProt P49840). The class given is functional.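 Note: GSK3A result taken from a broad kinome-wide kinase panel.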
For assay [23], the target named is Sphingosine 1-phosphate receptor 3 (Homo sapiens, UniProt Q99500). Nature of the assay: Late-stage fluorescence-based dose-response cell-based counterscreen assay to identify agonists of the Sphingosine 1-Phosphate Receptor 4 (S1P4): Sphingosine 1-Phosphate Receptor 3 (S1P3) agonist assay Set 2. The class given is functional.
In assay [24] the target is Sphingosine 1-phosphate receptor 1 (Homo sapiens, UniProt P21453). Nature of the assay: Late-stage fluorescence-based dose-response cell-based counterscreen assay to identify agonists of the Sphingosine 1-Phosphate Receptor 4 (S1P4): Sphingosine 1-Phosphate Receptor 1 (S1P1) agonist assay Set 2. Format: functional. In general terms: A counterscreen serves to expose hits that act by an unwanted route or on another target.

For assay [25], the target named is Sphingosine 1-phosphate receptor 2 (Homo sapiens, UniProt O95136). Nature of the assay: S1P2 receptor agonists, human, late-stage follow-up, counter-screen for S1P4 agonist project, cell-based, fluorescence, set 2 (AID 504873). The class given is functional.
In assay [26] the target is Sphingosine 1-phosphate receptor 5 (Homo sapiens, UniProt Q9H228). Nature of the assay: S1P5 receptor agonists, human, late-stage follow-up, counter-screen for S1P4 agonist project, cell-based, fluorescence, set 2 (AID 504867). Format: functional.
For assay [27], the system named is CHO. Nature of the assay: cytotoxicity in TLR9-MyD88 CHO cells, dose response, cytotoxicity control for TLR9-MyD88 binding inhibitor project, cell-based, luminescence (AID 588339).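 Note: CHO cells stably coexpressing TLR9 and MyD88 fusions from primary screen; compound exposure lasted 48 hours before viability readout.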 Format: functional, hamster. Conditions: Cricetulus griseus.
Assay [28] deals with Beta Lactamase (Pseudomonas aeruginosa, UniProt Q932Y6). Nature of the assay: beta-lactamase reporter inhibitor potency, dose response, artefact control for TLR9-MyD88 binding inhibitor project, BLA reporter cells, FRET fluorescence (AID 588341).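 Note: cell based assay in CHO-K1 cells stably expressing beta-lactamase.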 The class given is cell-based.
Sequence of Beta Lactamase (Q932Y6 whole entry): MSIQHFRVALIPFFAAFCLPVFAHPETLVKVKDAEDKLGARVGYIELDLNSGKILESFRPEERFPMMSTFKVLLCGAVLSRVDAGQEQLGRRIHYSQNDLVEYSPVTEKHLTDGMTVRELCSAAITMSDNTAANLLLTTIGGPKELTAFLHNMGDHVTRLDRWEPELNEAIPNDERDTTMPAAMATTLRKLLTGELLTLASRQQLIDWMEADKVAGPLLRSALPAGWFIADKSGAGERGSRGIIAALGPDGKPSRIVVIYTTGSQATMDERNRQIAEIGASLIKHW

Sequence of Focal adhesion kinase 1 (Q05397 whole entry): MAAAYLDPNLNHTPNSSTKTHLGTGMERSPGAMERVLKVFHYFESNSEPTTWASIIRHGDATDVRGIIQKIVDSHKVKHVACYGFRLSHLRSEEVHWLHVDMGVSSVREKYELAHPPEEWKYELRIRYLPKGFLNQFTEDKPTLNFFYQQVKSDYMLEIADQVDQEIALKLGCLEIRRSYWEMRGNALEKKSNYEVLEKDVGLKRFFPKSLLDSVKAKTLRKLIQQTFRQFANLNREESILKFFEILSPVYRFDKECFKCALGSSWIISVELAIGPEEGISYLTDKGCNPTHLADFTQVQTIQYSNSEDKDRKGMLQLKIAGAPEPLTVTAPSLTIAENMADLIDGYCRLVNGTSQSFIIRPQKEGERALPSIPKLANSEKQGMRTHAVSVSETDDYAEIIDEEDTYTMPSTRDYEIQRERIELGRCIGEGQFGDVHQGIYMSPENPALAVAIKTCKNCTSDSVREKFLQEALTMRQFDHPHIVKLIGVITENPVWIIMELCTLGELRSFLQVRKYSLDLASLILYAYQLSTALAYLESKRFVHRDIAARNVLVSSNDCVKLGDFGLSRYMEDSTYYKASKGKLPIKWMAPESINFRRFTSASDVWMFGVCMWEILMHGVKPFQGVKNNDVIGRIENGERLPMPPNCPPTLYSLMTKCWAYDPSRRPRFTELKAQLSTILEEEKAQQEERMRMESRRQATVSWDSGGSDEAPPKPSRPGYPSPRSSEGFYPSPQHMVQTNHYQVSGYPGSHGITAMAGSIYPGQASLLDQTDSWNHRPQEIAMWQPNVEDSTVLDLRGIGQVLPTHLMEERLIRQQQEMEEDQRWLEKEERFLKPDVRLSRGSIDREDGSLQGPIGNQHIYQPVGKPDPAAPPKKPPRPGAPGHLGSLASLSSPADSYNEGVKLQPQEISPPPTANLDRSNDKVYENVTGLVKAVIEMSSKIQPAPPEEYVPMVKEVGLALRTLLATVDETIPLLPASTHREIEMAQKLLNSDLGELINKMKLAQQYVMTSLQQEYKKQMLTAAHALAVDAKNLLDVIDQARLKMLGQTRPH
Sequence of Mitogen-activated protein kinase 8 (P45983 whole entry): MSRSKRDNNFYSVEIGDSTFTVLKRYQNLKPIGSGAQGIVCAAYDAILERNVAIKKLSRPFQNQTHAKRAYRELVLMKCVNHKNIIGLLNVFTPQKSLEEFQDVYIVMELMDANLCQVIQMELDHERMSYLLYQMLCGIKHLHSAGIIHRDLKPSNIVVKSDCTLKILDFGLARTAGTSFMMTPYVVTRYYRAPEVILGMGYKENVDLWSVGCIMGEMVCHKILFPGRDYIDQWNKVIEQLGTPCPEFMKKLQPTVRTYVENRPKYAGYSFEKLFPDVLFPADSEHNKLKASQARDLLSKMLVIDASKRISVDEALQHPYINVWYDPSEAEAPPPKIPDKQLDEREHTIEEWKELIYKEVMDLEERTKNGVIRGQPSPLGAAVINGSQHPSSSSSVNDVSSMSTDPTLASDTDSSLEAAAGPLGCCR
Sequence of G protein-coupled receptor kinase 5 (P34947 whole entry): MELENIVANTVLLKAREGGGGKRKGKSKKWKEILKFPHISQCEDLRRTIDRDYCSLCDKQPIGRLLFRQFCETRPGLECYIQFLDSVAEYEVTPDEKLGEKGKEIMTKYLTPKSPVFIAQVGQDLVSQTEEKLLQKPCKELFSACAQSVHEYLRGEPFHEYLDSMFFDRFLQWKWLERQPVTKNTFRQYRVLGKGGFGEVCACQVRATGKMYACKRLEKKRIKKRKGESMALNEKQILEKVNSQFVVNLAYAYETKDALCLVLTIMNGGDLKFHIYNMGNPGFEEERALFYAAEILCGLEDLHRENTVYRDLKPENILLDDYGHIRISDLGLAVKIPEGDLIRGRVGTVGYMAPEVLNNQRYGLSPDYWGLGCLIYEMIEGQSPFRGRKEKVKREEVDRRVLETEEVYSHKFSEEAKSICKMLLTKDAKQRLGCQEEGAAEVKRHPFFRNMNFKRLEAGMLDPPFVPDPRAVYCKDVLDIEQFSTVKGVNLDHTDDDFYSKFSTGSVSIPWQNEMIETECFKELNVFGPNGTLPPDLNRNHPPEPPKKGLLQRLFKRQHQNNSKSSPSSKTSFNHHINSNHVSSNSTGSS
Sequence of Sphingosine 1-phosphate receptor 2 (O95136 whole entry): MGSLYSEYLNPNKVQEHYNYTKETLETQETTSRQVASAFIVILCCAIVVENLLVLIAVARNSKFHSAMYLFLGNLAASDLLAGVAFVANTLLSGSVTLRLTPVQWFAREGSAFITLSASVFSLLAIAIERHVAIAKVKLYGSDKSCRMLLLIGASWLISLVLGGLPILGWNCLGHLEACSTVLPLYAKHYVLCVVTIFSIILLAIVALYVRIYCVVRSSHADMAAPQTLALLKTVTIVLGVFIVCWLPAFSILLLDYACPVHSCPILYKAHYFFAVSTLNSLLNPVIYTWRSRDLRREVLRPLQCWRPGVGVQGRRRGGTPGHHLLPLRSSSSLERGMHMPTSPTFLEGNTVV
Sequence of Casein kinase I isoform alpha (P48729 whole entry, canonical isoform): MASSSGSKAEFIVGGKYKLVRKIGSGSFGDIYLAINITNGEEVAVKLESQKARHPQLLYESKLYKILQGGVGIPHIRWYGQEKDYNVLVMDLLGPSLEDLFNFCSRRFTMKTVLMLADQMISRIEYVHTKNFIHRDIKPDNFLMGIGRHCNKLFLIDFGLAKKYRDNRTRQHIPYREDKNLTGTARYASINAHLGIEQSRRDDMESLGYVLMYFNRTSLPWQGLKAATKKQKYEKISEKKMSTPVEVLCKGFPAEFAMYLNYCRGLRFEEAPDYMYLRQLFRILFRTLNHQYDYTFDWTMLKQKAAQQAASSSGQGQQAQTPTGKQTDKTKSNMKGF
Sequence of Glycogen synthase kinase-3 alpha (P49840 whole entry): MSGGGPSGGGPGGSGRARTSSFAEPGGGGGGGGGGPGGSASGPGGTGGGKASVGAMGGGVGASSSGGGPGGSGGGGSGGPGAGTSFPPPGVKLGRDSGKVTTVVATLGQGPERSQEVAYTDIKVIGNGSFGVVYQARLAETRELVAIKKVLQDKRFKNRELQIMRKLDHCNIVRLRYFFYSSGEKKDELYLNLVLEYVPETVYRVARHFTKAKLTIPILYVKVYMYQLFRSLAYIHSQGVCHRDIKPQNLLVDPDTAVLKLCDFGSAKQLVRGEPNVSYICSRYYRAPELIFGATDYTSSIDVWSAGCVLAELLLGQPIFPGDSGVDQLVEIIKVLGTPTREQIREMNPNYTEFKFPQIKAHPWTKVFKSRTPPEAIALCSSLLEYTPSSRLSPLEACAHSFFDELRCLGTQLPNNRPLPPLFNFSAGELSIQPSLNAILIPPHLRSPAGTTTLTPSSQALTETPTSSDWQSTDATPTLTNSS
Sequence of Sphingosine 1-phosphate receptor 3 (Q99500 whole entry): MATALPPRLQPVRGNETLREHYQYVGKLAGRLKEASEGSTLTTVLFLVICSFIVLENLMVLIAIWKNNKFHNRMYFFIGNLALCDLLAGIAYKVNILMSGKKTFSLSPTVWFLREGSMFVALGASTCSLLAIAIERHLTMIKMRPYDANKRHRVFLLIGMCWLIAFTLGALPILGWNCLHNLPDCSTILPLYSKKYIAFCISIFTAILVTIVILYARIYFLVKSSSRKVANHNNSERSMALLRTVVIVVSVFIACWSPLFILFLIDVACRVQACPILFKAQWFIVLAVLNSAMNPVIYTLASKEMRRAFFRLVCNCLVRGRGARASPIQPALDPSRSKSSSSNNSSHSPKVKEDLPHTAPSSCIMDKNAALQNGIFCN
Sequence of Sphingosine 1-phosphate receptor 1 (P21453 whole entry): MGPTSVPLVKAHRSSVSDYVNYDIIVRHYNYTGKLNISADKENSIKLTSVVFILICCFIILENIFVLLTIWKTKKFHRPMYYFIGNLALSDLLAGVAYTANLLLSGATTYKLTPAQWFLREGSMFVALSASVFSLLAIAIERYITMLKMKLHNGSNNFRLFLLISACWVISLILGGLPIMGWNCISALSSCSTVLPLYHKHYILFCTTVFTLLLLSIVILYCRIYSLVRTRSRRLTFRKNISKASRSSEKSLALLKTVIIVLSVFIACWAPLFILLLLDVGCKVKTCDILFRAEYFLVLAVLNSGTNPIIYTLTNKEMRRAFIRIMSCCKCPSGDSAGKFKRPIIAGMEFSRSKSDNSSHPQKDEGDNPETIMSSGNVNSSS
Sequence of Serine/threonine-protein kinase PAK 4 (O96013 whole entry): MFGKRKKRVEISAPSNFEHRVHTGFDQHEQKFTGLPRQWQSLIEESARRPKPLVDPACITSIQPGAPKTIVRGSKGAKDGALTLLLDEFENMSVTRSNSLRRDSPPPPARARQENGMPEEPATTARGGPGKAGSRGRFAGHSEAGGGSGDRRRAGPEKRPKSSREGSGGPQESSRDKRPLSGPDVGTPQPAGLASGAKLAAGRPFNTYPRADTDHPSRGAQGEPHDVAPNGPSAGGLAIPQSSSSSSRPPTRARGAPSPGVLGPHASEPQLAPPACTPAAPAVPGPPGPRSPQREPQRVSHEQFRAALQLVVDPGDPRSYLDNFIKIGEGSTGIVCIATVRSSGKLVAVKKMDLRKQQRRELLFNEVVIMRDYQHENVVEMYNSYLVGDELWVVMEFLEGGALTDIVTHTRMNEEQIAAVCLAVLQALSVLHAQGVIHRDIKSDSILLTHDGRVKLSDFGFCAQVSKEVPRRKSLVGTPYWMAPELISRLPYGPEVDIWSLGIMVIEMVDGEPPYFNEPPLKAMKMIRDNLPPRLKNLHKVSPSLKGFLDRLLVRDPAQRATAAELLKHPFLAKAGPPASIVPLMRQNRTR

A word on the Ki: it is the equilibrium dissociation constant of an inhibitor or competing ligand from its target. Turning to `Cc1cc(=O)[nH]c2[nH]nc(-c3cccc(C(F)(F)F)c3)c12`, the Ki in assay [1] was > 6.31 µM (inactive); in assay [2] it was > 6.31 µM (inactive); in [3] it was > 3.98 µM (inactive); in assay [4] it was > 5.01 µM (inactive); in [5], > 5.01 µM (inactive); in assay [6], > 3.98 µM (inactive). For the same compound, the Ki in assay [7] is > 7.94 µM (inactive); in [8], > 6.31 µM (inactive); in assay [9] it was > 5.01 µM (inactive); in assay [10], > 5.01 µM (inactive); in assay [11], > 5.01 µM (inactive); in assay [12] it was > 6.31 µM (inactive). In addition, the Ki in [13] is > 3.98 µM (inactive); in assay [14] it was > 6.31 µM (inactive); in assay [15] it was > 5.01 µM (inactive); in [16] it was > 6.31 µM (inactive); in assay [17] it was > 3.98 µM (inactive); in [18], > 3.98 µM (inactive). Further, the Ki in [19] is > 6.31 µM (inactive); in assay [20] it was > 3.98 µM (inactive); in assay [21], > 3.98 µM (inactive); in assay [22], > 3.98 µM (inactive).

By EC50 is commonly meant the concentration at which the effect is half-maximal. As to `C/N=C1/S/C(=C/c2cc(C)n(-c3ccc(Cl)cc3F)c2C)C(=O)N1C`, the EC50 in assay [23] was > 25 µM (inactive); in [24] it was 3.01 µM (active); in assay [25] it was > 25 µM (inactive); in assay [26], 0.0336 µM (active).

One may read the IC50 as the concentration that gives 50% inhibition. As to `O=C1c2cccc3c(N4CCCCC4)ccc(c23)C(=O)N1c1ccccc1O`, the IC50 is > 49.8 µM (inactive) in assay [27] and 7.63 µM (active) in assay [28].
